# Assay results from publication PMC9176662, “Design, synthesis, molecular modeling and biological evaluation of novel Benzoxazole-Benzamide conjugates via a 2-Thioacetamido linker as potential anti-proliferative agents, VEGFR-2 inhibitors and apoptotic inducers” (Journal of Enzyme Inhibition and Medicinal Chemistry, 2022).
# Legend:
# Format in all cases: cell-based, human
# Bcl-2 = assay: Western blot of Bcl-2 expression in MCF-7; settings: MCF-7, Western blot, normalised to β-actin
# Description: (§1) It is well known that the anti-apoptotic proteins Bcl-2 and Bcl-xL are mainly overexpressed in various types of cancer, causing survival of cancer cells and/or drug resistance. Therefore, inhibition of these proteins expression leads to cancer cell death and has been used as a strategy for anticancer drug development. In this study, the impact of compounds 1 and 11 on Bcl-2 and Bcl-xL expression in HCT-116 and MCF-7 cancer cell lines was examined using Western blot analysis and all the data were normalised to β-actin (Figure 9).
# (§2) 2.5. Impact of compounds 1 and 11 on the level of anti-apoptotic markers (Bcl-2, and Bcl-xL).
# (§3) Gel electrophoresis and immuno-blot analysis of proteins (Western Blot) method was used to examine the effect of compounds 1 and 11 on the level of anti-apoptotic markers (Bcl-2, and Bcl-xL). […]
# (§4) The cells were then immediately frozen at −20 °C for 1 h for further lysis and collected by cell scraper and sonicated 2×10s. Total protein concentrations were determined colorimetrically using Bradford method before proceeding to the western blotting. […] Briefly, the membranes were incubated for 1 min with a mixture of equal volumes from ECL solution A and ECL solution B. The chemiluminescent signals were captured using a CCD camera-based imager (Chemi Doc imager, Biorad, USA), and the band intensities were then measured with β-actin as an internal reference protein. […]
# MCF-7 cells = assay: Cell cycle analysis by DNA flow cytometry, MCF-7; settings: MCF7, 24 h, compound at its IC50 (supplement: 10 μM); for %Pre-G1: control 3.41; for %G2-M: control 16.53; for %S: control 28.33; for %G0-G1: control 55.14
# Description: (§5) It is clearly known that generally the cytotoxic agents exert their anti-proliferative effect via cell cycle arrest at a specific phase. In the present study, due to the excellent in-vitro anti-proliferative activity of conjugates 1 and 11 against both HCT-116 and MCF-7 cancer cell lines as well as their excellent VEGFR-2 inhibitory activities, cell cycle analysis have been carried out for both compounds. […]
# (§6) 2.3. Cell cycle analysis.
# (§7) HCT-116 and MCF-7 cells were seeded at concentrations of 1 x 10^5 cells per well in a 6-well plate, and then incubated for 24 h. The cells were treated for 24 h with vehicles (0.1 percent DMSO) or 10 μM of compounds 1 or 11. Using ice-cold, 70 percent ethanol at 4 °C, cells were harvested and fixed for 12 h. Ethanol was removed, and the cells were washed by cold PBS.
# (§8) Then, the cells were incubated in 0.5 mL of PBS containing 1 mg/mL Ranse for 30 min at 37 °C.
# (§9) In the dark, the cells were stained with propidium iodide for 30 min. Flow cytometer was then used to detect contents of DNA [63]. […]
# HCT-116 cells [1] = assay: Annexin V-FITC/PI apoptosis assay, HCT-116; settings: for increase in total apoptosis compared to the control: HCT-116; for %Apoptosis %Early / %Apoptosis %Late / %Necrosis: HCT-116, 48 h incubation; for %Apoptosis %Early: control 1.1; for %Apoptosis %Late: control 1.57; for %Necrosis: control 1.85
# Description: 2.4. Annexin V-FITC/PI apoptosis assay.
# For this study, annexin V-FITC / PI apoptosis detection kit was used; HCT -116 and MCF-7 cells were stained with annexin V fluorescein isothiocyanate (FITC) and propidium iodide (PI) counter-stained.1 x 10^5 HCT-116 cells were 48 h incubated with compound 1 or 11, trypsinized, washed with phosphate-buffered saline (PBS), stained in the dark at 37 °C for 15 min utes.
# Finally, the cells analyzed with a cytometer of FACS Caliber flow.
# Bcl-xL = assay: Western blot of Bcl-xL expression in MCF-7; settings: MCF-7, Western blot, normalised to β-actin
# Description: as §1, §2, §3, §4
# HCT-116 cells [2] = assay: Cell cycle analysis by DNA flow cytometry, HCT-116; settings: HCT116, 24 h, compound at its IC50 (supplement: 10 μM); for %Pre-G1: control 4.52; for %G2-M: control 18.93; for %S: control 31.56; for %G0-G1: control 49.51
# Description: as §5, §6, §7, §8, §9
Structure (SMILES),Bcl-2 expression (Bcl-2),%Pre-G1 (MCF-7 cells) [%],%G2-M (MCF-7 cells) [%],%S (MCF-7 cells) [%],%G0-G1 (MCF-7 cells) [%],increase in total apoptosis compared to the control (HCT-116 cells [1]),%Apoptosis %Early (HCT-116 cells [1]) [%],%Apoptosis %Late (HCT-116 cells [1]) [%],%Necrosis (HCT-116 cells [1]) [%],Bcl-xL expression (Bcl-xL),%Pre-G1 (HCT-116 cells [2]) [%],%G2-M (HCT-116 cells [2]) [%],%S (HCT-116 cells [2]) [%],%G0-G1 (HCT-116 cells [2]) [%]
O=C(CSc1nc2cc(Cl)ccc2o1)Nc1ccc(C(=O)Nc2ccc(Cl)cc2)cc1 [Compound 11],inhibited,16.93,25.24,30.92,43.84,~3.9 fold,6.01,9.62,1.78,inhibited,17.41,28.44,26.19,45.37
O=C(CSc1nc2ccccc2o1)Nc1ccc(C(=O)NC2CCCCC2)cc1 [Compound 1],inhibited,19.78,29.62,29.72,40.66,approximately 3.4 fold,4.86,8.95,1.55,inhibited,15.36,24.41,33.25,42.34
